Converted amounts (≈) assume the structure as drawn.
How the values were obtained:
[1] = Equilibrium solubility of OCA in various buffers at 37° C.; assay type: physicochemical; conditions: for solubility: aqueous buffer, 37 °C, thermodynamic from solid
Description: Solubility Studies of OCA in Various Buffers. A study was performed to screen different media of various pH over the pH range 1.2-10.0, incorporating the physiological pH range (1.2-6.8) for immediate release tablets.

[2] = system: subjects with primary biliary cirrhosis; assay: Example 8: OCA in combination with UDCA in subjects with primary biliary cirrhosis; assay type: in vivo, human
Description: This example describes a study conducted using an international, multi-center, randomized, double-blind, placebo-controlled, multi-dose, parallel group to determine efficacy and safety of obeticholic acid (OCA) in combination with ursodeoxycholic acid (UDCA) in subjects with primary biliary cirrhosis.
Key Exclusion criteria • Use of colchicine, methotrexate, azathioprine, or systemic corticosteroids • Screening conjugated (direct) bilirubin>2×ULN; ALT or AST>5×ULN; serum creatinine>1.5 mg/dL (133 μmol/L) • History or presence of hepatic decompensation (e.g., variceal bleeds, encephalopathy, or poorly controlled ascites) • History or presence of other concomitant liver diseases or human immunodeficiency virus (HIV) or other viral hepatitis infection • Clinically significant medical condition, and gastrointestinal conditions affecting drug ADME
The percent change (%) in serum ALP from Baseline to End of Study (EOS) was tested where [EOS=Day 85 or last observed ALP value on treatment]
Also observed were the absolute and percent changes in serum ALP levels from Baseline to Day 15, Day 29, Day 57, Day 85/ET and Follow-Up (Day 99). Patients were examined for the absolute and percent change in serum gamma-glutamyl transferase (GGT), alanine aminotransferase (ALT), and aspartate aminotransferase (AST) values from Baseline to Day 15, Day 29, Day 57, Day 85/ET and Follow-Up (Day 99). Patients were examined for absolute and percent changes in serum albumin and conjugated (direct) bilirubin values from Baseline to Day 15, Day 29, Day 57, Day 85/ET and Follow-Up (Day 99). Patients' Enhanced liver fibrosis (ELF) score and change in levels of its components, hyaluronic acid, aminoterminal peptide of pro-collagen III, and tissue inhibitor of matrix metalloproteinase-1 from Baseline to Day 85/ET were performed. The absolute and percent changes in levels of C-reactive protein, non-esterified fatty acid, tumor necrosis factor alpha, tumor necrosis factor beta, tumor growth factor beta, bile acids, glutathione, immunoglobulin M, and osteopontin from Baseline to Day 85/ET were taken.
Overall, 165 subjects (100%) received at least 1 dose of investigational product (ITT and Safety Populations) and 136 subjects comprised the Completer Population. One hundred sixty-one subjects (98%) were included for the analysis of the mITT Population as measured by the percent change in ALP from Baseline to EOS; the mITT Population for sensitivity analysis of the primary endpoint included 163 subjects. It should be noted that the mITT population was defined for the primary analysis as all patients randomized who received at least one dose of study medication and had at least one post-baseline ALP evaluation which was taken at most seven days after their last dose of study medication. (See FIG. 10). The mITT Population for the sensitivity analysis included ALP assessments obtained up to 15 days after the last investigational product use (unlike 7 days for primary endpoint). The number of subjects was balanced across all groups in all analysis populations with the exception of the Completer Population due to the higher proportion of discontinuations with OCA 50 mg.

[3] = OCA 10 mg + UDCA, Completer (n = 32)
[4] = OCA 25 mg + UDCA, Completer (n = 42)
[5] = OCA 50 mg + UDCA, Completer (n = 25)

solubility ([1]; pH 4.1, aqueous buffer, pH 4.1 Acetate): 3 µg/mL (≈ 7.13 µM)
solubility ([1]; pH 5.1, aqueous buffer, pH 5.1 Acetate): 23 µg/mL (≈ 54.7 µM)
solubility ([1]; pH 6, aqueous buffer, pH 6.0 Phosphate): 50 µg/mL (≈ 119 µM)
solubility ([1]; pH 6.8, aqueous buffer, above pH 6.8): > 10 µg/mL
solubility ([1]; pH 6.8, aqueous buffer, pH 6.8 Phosphate (50 mM sodium phosphate dibasic)): 220 µg/mL (≈ 523 µM)
solubility ([1]; pH 7, aqueous buffer, pH 7.0 Phosphate): 462 µg/mL (≈ 1100 µM)
solubility ([1]; pH 8, aqueous buffer, pH 8.0 Phosphate): 486 µg/mL (≈ 1160 µM)
solubility ([1]; pH 9, aqueous buffer, pH 9.0 Alkaline Borate): 462 µg/mL (≈ 1100 µM)
solubility ([1]; pH 10, aqueous buffer, pH 10.0 Alkaline Borate): 56 µg/mL (≈ 133 µM)
USP Solubility Rating ([1]; pH 1.2 Hydrochloric acid): Practically
USP Solubility Rating ([1]; pH 2.0 Hydrochloric acid): Practically
USP Solubility Rating ([1]; pH 3.0 Acid Phthalate): Practically
USP Solubility Rating ([1]; pH 4.1 Acetate): Slightly soluble
USP Solubility Rating ([1]; pH 5.1 Acetate): Sparingly soluble
USP Solubility Rating ([1]; pH 6.0 Phosphate): Soluble
USP Solubility Rating ([1]; pH 6.8 Phosphate): Freely soluble
USP Solubility Rating ([1]; pH 7.0 Phosphate): Freely soluble
USP Solubility Rating ([1]; pH 8.0 Phosphate): Freely soluble
USP Solubility Rating ([1]; pH 9.0 Alkaline Borate): Freely soluble
USP Solubility Rating ([1]; pH 10.0 Alkaline Borate): Soluble
Compound: CC[C@H]1[C@@H](O)[C@@H]2[C@H](CC[C@]3(C)[C@@H]([C@H](C)CCC(=O)O)CC[C@@H]23)[C@@]2(C)CC[C@@H](O)C[C@@H]12 [OCA, 3α,7α-dihydroxy-6α-ethyl-5β-cholan-24-oic acid]
ALP Mean Change, Baseline to Day 85/ET [2, 3]: −86.3 U/L
ALP Mean Percent Change, Baseline to Day 85/ET [2, 3]: −26.7%
ALP Median Change, Baseline to Day 85/ET [2, 3]: −61.3 U/L
ALP Median Percent Change, Baseline to Day 85/ET [2, 3]: −23.5%
ALP at Day 85/ET, Mean [2, 3]: 212.3 U/L
ALP at Day 85/ET, Median [2, 3]: 175.0 U/L
ALP Mean Change, Baseline to Day 85/ET ([2]; OCA 10 mg + UDCA, ITT (n = 38)): −75.4 U/L
ALP Mean Percent Change, Baseline to Day 85/ET ([2]; OCA 10 mg + UDCA, ITT (n = 38)): −23.3%
ALP Median Change, Baseline to Day 85/ET ([2]; OCA 10 mg + UDCA, ITT (n = 38)): −47.5 U/L
ALP Median Percent Change, Baseline to Day 85/ET ([2]; OCA 10 mg + UDCA, ITT (n = 38)): −21.0%
ALP at Day 85/ET, Mean ([2]; OCA 10 mg + UDCA, ITT (n = 38)): 219.0 U/L
ALP at Day 85/ET, Median ([2]; OCA 10 mg + UDCA, ITT (n = 38)): 177.5 U/L
ALP Mean Change, Baseline to Day 85/ET [2, 4]: −76.0 U/L
ALP Mean Percent Change, Baseline to Day 85/ET [2, 4]: −26.6%
ALP Median Change, Baseline to Day 85/ET [2, 4]: −71.3 U/L
ALP Median Percent Change, Baseline to Day 85/ET [2, 4]: −28.2%
ALP at Day 85/ET, Mean [2, 4]: 199.0 U/L
ALP at Day 85/ET, Median [2, 4]: 187.5 U/L
ALP Mean Change, Baseline to Day 85/ET ([2]; OCA 25 mg + UDCA, ITT (n = 48)): −65.0 U/L
ALP Mean Percent Change, Baseline to Day 85/ET ([2]; OCA 25 mg + UDCA, ITT (n = 48)): −24.0%
ALP Median Change, Baseline to Day 85/ET ([2]; OCA 25 mg + UDCA, ITT (n = 48)): −69.3 U/L
ALP Median Percent Change, Baseline to Day 85/ET ([2]; OCA 25 mg + UDCA, ITT (n = 48)): −27.8%
ALP at Day 85/ET, Mean ([2]; OCA 25 mg + UDCA, ITT (n = 48)): 225.0 U/L
ALP at Day 85/ET, Median ([2]; OCA 25 mg + UDCA, ITT (n = 48)): 187.5 U/L
ALP Mean Change, Baseline to Day 85/ET [2, 5]: −101.8 U/L
ALP Mean Percent Change, Baseline to Day 85/ET [2, 5]: −32.5%
ALP Median Change, Baseline to Day 85/ET [2, 5]: −76.0 U/L
ALP Median Percent Change, Baseline to Day 85/ET [2, 5]: −33.9%
ALP at Day 85/ET, Mean [2, 5]: 179.1 U/L
ALP at Day 85/ET, Median [2, 5]: 158.5 U/L
ALP Mean Change, Baseline to Day 85/ET ([2]; OCA 50 mg + UDCA, ITT (n = 41)): −62.9 U/L
ALP Mean Percent Change, Baseline to Day 85/ET ([2]; OCA 50 mg + UDCA, ITT (n = 41)): −20.0%
ALP Median Change, Baseline to Day 85/ET ([2]; OCA 50 mg + UDCA, ITT (n = 41)): −56.5 U/L
ALP Median Percent Change, Baseline to Day 85/ET ([2]; OCA 50 mg + UDCA, ITT (n = 41)): −22.7%
ALP at Day 85/ET, Mean ([2]; OCA 50 mg + UDCA, ITT (n = 41)): 227.9 U/L
ALP at Day 85/ET, Median ([2]; OCA 50 mg + UDCA, ITT (n = 41)): 197.0 U/L

— patent US10758549B2, “Compositions of obeticholic acid and methods of use” (Intercept Pharmaceuticals, Inc., priority 2015, dated 2020)
